For one assay, the target named is JAK1 (Homo sapiens (Human), UniProt P23458). Put plainly: Jak Biochemical HTRF Assay, JAK1. The settings on record: HTRF biochemical assay, GST-tagged catalytic domain; top concentration tested […]; read-out: JAK1 IC50. An excerpt: (§1) Jak Biochemical HTRF Assay Protocol
(§2) Subsequent reagent additions employed an Agilent Bravo.
In general terms: In TR-FRET formats the signal depends on donor and acceptor labels being close together.

Another assay deals with JAK2 (Homo sapiens (Human), UniProt O60674). The assay can be described thus: Jak Biochemical HTRF Assay, JAK2. The settings on record: HTRF biochemical assay, GST-tagged catalytic domain; top concentration tested […].
JAK2, sequence (O60674 849-1124): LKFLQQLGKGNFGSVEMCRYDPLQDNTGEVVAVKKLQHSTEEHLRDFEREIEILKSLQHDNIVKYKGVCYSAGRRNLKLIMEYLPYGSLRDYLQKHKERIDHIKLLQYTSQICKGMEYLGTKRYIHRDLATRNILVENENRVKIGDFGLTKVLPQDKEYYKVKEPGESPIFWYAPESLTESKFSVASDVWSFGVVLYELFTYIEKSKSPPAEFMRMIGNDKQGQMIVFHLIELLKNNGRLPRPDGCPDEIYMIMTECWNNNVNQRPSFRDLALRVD
Text: as §1, §2

JAK1, sequence (P23458 875-1153): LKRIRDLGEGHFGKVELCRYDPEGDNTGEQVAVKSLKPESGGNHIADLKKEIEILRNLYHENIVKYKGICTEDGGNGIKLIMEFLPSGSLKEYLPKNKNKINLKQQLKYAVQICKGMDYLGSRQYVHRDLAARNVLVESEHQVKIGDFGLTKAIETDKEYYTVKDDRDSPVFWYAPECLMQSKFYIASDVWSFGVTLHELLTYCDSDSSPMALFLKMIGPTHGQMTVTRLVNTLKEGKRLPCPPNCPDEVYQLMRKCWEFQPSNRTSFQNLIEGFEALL

Usually IC50 stands for the concentration needed to halve the response being measured. Regarding `N#CCC1(n2cc(C(N)=O)c(Nc3ccccc3)n2)CCN(C(=O)OCc2cccc(F)c2)CC1` [Example 30-32, 3-fluorobenzyl 4-[4-carbamoyl-3-(phenylamino)-1H-pyrazol-1-yl]-4-(cyanomethyl)piperidine-1-carboxylate], the IC50 on JAK1 is 4 nM; against JAK2, 88 nM.
With `N#CCC1(n2cc(C(N)=O)c(Nc3ccccc3)n2)CCN(C(=O)OCc2ccccc2F)CC1` [Example 30-33, 2-fluorobenzyl 4-[4-carbamoyl-3-(phenylamino)-1H-pyrazol-1-yl]-4-(cyanomethyl)piperidine-1-carboxylate], the IC50 at JAK1 came out at 2 nM; against JAK2, 40 nM.
On to `N#CCC1(n2cc(C(N)=O)c(Nc3ccccc3)n2)CCN(C(=O)OC2Cc3ccccc3C2)CC1` [Example 30-34, 2,3-dihydro-1H-inden-2-yl 4-[4-carbamoyl-3-(phenylamino)-1H-pyrazol-1-yl]-4-(cyanomethyl)piperidine-1-carboxylate], for which the IC50 at JAK1 was found to be 3 nM; at JAK2, 83 nM.
On the same counts, the results for `COCCOC(=O)N1CCC(CC#N)(n2cc(C(N)=O)c(Nc3ccccc3)n2)CC1` [Example 30-35, 2-methoxyethyl 4-[4-carbamoyl-3-(phenylamino)-1H-pyrazol-1-yl]-4-(cyanomethyl)piperidine-1-carboxylate] are 4 nM and 71 nM.
For the compound `N#CCC1(n2cc(C(N)=O)c(Nc3ccccc3)n2)CCN(C(=O)OC2CCOC2)CC1` (centres unmarked) [Example 30-36, 4-carbamoyl-1-[4-(cyanomethyl)-1-{[(3R and 3S)-tetrahydrofuran-3-yloxy]carbonyl}piperidin-4-yl]-3-(phenylamino)-1H-pyrazol-2-ium], the IC50 on JAK1 amounted to 1 nM; at JAK2, 40 nM.
Regarding `N#CCC1(n2cc(C(N)=O)c(Nc3ccccc3)n2)CCN(C(=O)OC2CCOCC2)CC1` [Example 30-37, tetrahydro-2H-pyran-4-yl 4-[4-carbamoyl-3-(phenylamino)-1H-pyrazol-1-yl]-4-(cyanomethyl)piperidine-1-carboxylate], the concentration for half-maximal inhibition (IC50) on JAK1 was determined as 3 nM; on JAK2, 103 nM.
For `N#CCC1(n2cc(C(N)=O)c(Nc3ccccc3)n2)CCN(C(=O)OCc2cccnc2)CC1` [Example 30-39, pyridin-3-ylmethyl 4-[4-carbamoyl-3-(phenylamino)-1H-pyrazol-1-yl]-4-(cyanomethyl)piperidine-1-carboxylate], the IC50 on JAK1 is 2 nM; against JAK2, 38 nM.
As for `N#CCC1(n2cc(C(N)=O)c(Nc3ccccc3)n2)CCN(C(=O)OCc2ccncc2)CC1` [Example 30-40, pyridin-4-ylmethyl 4-[4-carbamoyl-3-(phenylamino)-1H-pyrazol-1-yl]-4-(cyanomethyl)piperidine-1-carboxylate], the IC50 on JAK1 is 2 nM; against JAK2, 58 nM.
Regarding `CN1CCC(OC(=O)N2CCC(CC#N)(n3cc(C(N)=O)c(Nc4ccccc4)n3)CC2)CC1` [Example 30-42, 1-methylpiperidin-4-yl 4-[4-carbamoyl-3-(phenylamino)-1H-pyrazol-l-yl]-4-(cyanomethyl)piperidine-1-carboxylate], the IC50 at JAK1 came to 41 nM; against JAK2, 798 nM.
For `CN1CCN(CCOC(=O)N2CCC(CC#N)(n3cc(C(N)=O)c(Nc4ccccc4)n3)CC2)CC1` [Example 30-43, 2-(4-methylpiperazin-1-yl)ethyl 4-[4-carbamoyl-3-(phenylamino)-1H-pyrazol-1-yl]-4-(cyanomethyl)piperidine-1-carboxylate], the IC50 amounted to 12 nM at JAK1 and 318 nM against JAK2.
Turning to `CN1CCC(COC(=O)N2CCC(CC#N)(n3cc(C(N)=O)c(Nc4ccccc4)n3)CC2)CC1` [Example 30-44, (1-methylpiperidin-4-yl)methyl 4-[4-carbamoyl-3-(phenylamino)-1H-pyrazol-1-yl]-4-(cyanomethyl)piperidine-1-carboxylate], the IC50 on JAK1 was 11 nM; against JAK2, 318 nM.
In the case of `N#CCC1(n2cc(C(N)=O)c(Nc3ccc(F)cc3)n2)CCN(C(=O)OCCC(F)(F)F)CC1` [Example 30-45, 3,3,3-Trifluoropropyl 4-{4-carbamoyl-3-[(4-fluorophenyl)amino]-1H-pyrazol-1-yl}-4-(cyanomethyl)piperidine-1-carboxylate], the IC50 on JAK1 worked out at 3 nM; at JAK2, 97 nM.
On to `N#CCC1(n2cc(C(N)=O)c(Nc3ccc(F)cc3)n2)CCN(C(=O)OC2CCOCC2)CC1` [Example 30-47, tetrahydro-2H-pyran-4-yl 4-{4-carbamoyl-3-[(4-fluorophenyl)amino]-1H-pyrazol-1-yl}-4-(cyanomethyl)piperidine-1-carboxylate], for which the IC50 amounted to 3 nM at JAK1 and 103 nM at JAK2.
As for `COCCOC(=O)N1CCC(CC#N)(n2cc(C(N)=O)c(Nc3ccc(F)cc3)n2)CC1` [Example 30-48, 2-methoxyethyl 4-{4-carbamoyl-3-[(4-fluorophenyl)amino]-1H-pyrazol-1-yl}-4-(cyanomethyl)piperidine-1-carboxylate], the IC50 on JAK1 worked out at 4 nM; at JAK2, 71 nM.
With `N#CCC1(n2cc(C(N)=O)c(Nc3ccnc(F)c3)n2)CCN(C(=O)OCC2CC2)CC1` [Example 30-49, Cyclopropylmethyl 4-{4-carbamoyl-3-[(2-fluoropyridin-4-yl)amino]-1H-pyrazol-1-yl}-4-(cyanomethyl)piperidine-1-carboxylate], the IC50 at JAK1 worked out at 0.3 nM; against JAK2, 18 nM.
For `N#CCC1(n2cc(C(N)=O)c(Nc3ccccc3)n2)CN(C(=O)OCCF)C1` [Example 30-50, 2-fluoroethyl 3-[4-carbamoyl-3-(phenylamino)-1H-pyrazol-1-yl]-3-(cyanomethyl)azetidine-1-carboxylate], the values for the IC50 at JAK1 and at JAK2 were 2 nM and 27 nM, respectively.
For `CC(C)COC(=O)N1CC(CC#N)(n2cc(C(N)=O)c(Nc3ccccc3)n2)C1` [Example 30-51, 2-methylpropyl 3-[4-carbamoyl-3-(phenylamino)-1H-pyrazol-1-yl]-3-(cyanomethyl)azetidine-1-carboxylate], the IC50 at JAK1 worked out at 14 nM; against JAK2 it was 298 nM.
`N#CCC1(n2cc(C(N)=O)c(Nc3ccccc3)n2)CN(C(=O)OC2CCCC2)C1` [Example 30-52, cyclopentyl 3-[4-carbamoyl-3-(phenylamino)-1H-pyrazol-1-yl]-3-(cyanomethyl)azetidine-1-carboxylate]: the IC50 is 3 nM on JAK1 and 76 nM against JAK2.
For `N#CCC1(n2cc(C(N)=O)c(Nc3ccccc3)n2)CN(C(=O)OCc2ccccc2)C1` [Example 30-53, benzyl 3-[4-carbamoyl-3-(phenylamino)1H-pyrazol-1-yl]-3-(cyanomethyl)azetidine-1-carboxylate], the IC50 was found to be 11 nM on JAK1 and 262 nM at JAK2.
For `N#CCC1(n2cc(C(N)=O)c(Nc3ccccc3)n2)CN(C(=O)OCCN2CCOCC2)C1` [Example 30-55, 2-morpholin-4-ylethyl 3-[4-carbamoyl-3-(phenylamino)-1H-pyrazol-1-yl]-3-(cyanomethyl)azetidine-1-carboxylate], the IC50 was 74 nM on JAK1 and 491 nM at JAK2.
On the same counts, the results for `N#CCC1(n2cc(C(N)=O)c(Nc3ccccc3)n2)CN(C(=O)OC2CCCCC2)C1` [Example 30-57, cyclohexyl 3-[4-carbamoyl-3-(phenylamino)-1H-pyrazol-1-yl]-3-(cyanomethyl)azetidine-1-carboxylate] are 14 nM and 466 nM.
For the compound `COCCOC(=O)N1CC(CC#N)(n2cc(C(N)=O)c(Nc3ccccc3)n2)C1` [Example 30-59, 2-methoxyethyl 3-[4-carbamoyl-3-(phenylamino)-1H-pyrazol-1-yl]-3-(cyanomethyl)azetidine-1-carboxylate], the IC50 on JAK1 turned out to be 15 nM; at JAK2, 336 nM.
Consider `CCOC(=O)COC(=O)N1CC(CC#N)(n2cc(C(N)=O)c(Nc3ccccc3)n2)C1` [Example 30-60, 2-ethoxy-2-oxoethyl 3-[4-carbamoyl-3-(phenylamino)-1H-pyrazol-1-yl]-3-(cyanomethyl)azetidine-1-carboxylate], for which the IC50 on JAK1 was found to be 39 nM; on JAK2 it was 484 nM.
As to `COCCCOC(=O)N1CC(CC#N)(n2cc(C(N)=O)c(Nc3ccccc3)n2)C1` [Example 30-61, 3-methoxypropyl 3-[4-carbamoyl-3-(phenylamino)-1H-pyrazol-1-yl]-3-(cyanomethyl)azetidine-1-carboxylate], the IC50 on JAK1 amounted to 37 nM; against JAK2, 603 nM.
For `N#CCC1(n2cc(C(N)=O)c(Nc3ccccc3)n2)CN(C(=O)OC2CCOC2)C1` (centres unmarked) [Example 30-62, tetrahydrofuran-3-yl 3-[4-carbamoyl-3-(phenylamino)-1H-pyrazol-1-yl]-3-(cyanomethyl)azetidine-1-carboxylate], the IC50 was found to be 5 nM on JAK1 and 102 nM on JAK2.
As for `N#CCC1(n2cc(C(N)=O)c(Nc3ccccc3)n2)CN(C(=O)OCCN2CCCC2=O)C1` [Example 30-64, 2-(2-oxopyrrolidin-1-yl)ethyl 3-[4-carbamoyl-3-(phenylamino)-1H-pyrazol-1-yl]-3-(cyanomethyl)azetidine-1-carboxylate], the IC50 on JAK1 worked out at 188 nM; at JAK2 it was 1480 nM.
Regarding `N#CCC1(n2cc(C(N)=O)c(Nc3ccccc3)n2)CN(C(=O)OCc2cccnc2)C1` [Example 30-65, pyridin-3-ylmethyl 3-[4-carbamoyl-3-(phenylamino)-1H-pyrazol-1-yl]-3-(cyanomethyl)azetidine-1-carboxylate], the figures for the IC50 on JAK1 and against JAK2 were 12 nM and 271 nM, respectively.
On the same counts, the results for `N#CCC1(n2cc(C(N)=O)c(Nc3ccccc3)n2)CN(C(=O)OCc2ccncc2)C1` [Example 30-66, pyridin-4-ylmethyl 3-[4-carbamoyl-3-(phenylamino)-1H-pyrazol-1-yl]-3-(cyanomethyl)azetidine-1-carboxylate] are 19 nM and 353 nM.

These data come from patent US9328099B2, “Cyanomethylpyrazole carboxamides as janus kinase inhibitors” (Merck Sharp & Dohme Corp., priority 2011, dated 2016).
